Data taken from ChEMBL document CHEMBL3425473, “Synthesis and biological evaluation of boswellic acid-NSAID hybrid molecules as anti-inflammatory and anti-arthritic agents” (Eur J Med Chem, 2015).
Calls of active or inactive are those of the source. The rule behind the calls is not given here.

What was measured:
Rattus norvegicus [1] = assay: In vivo inhibition of COX-2 activity in Complete Freund's adjuvant-induced arthritic albino Wistar rat serum assessed as decrease in peroxidase activity measured as TMPD oxidation rate at 10 mg/kg administered via gavage daily started from day 7 and continued till day 21 after CFA injection by colorimetric analysis; format: functional, organism-based; set-up: dose 10 mg/kg
[2] = Cytotoxicity against human SW982 cells after 24 hrs by MTT assay; format: cell-based; details: read-out: LD50
Rattus norvegicus [3] = assay: Reduction in neutrophil infiltration in Complete Freund's adjuvant-induced arthritic albino Wistar rat ankle joint at 10 mg/kg administered via gavage daily started from day 7 and continued till day 21 after CFA injection by hematoxylin-eosin staining based microscopic analysis; format: functional, organism-based; set-up: dose 10 mg/kg
[4] = target: T1, Prostaglandin G/H synthase 2 (Homo sapiens) (UniProt P35354); assay: Inhibition of IL-1 beta-induced COX-2 activity in human SW982 cells assessed as enzyme activity at LD50 treated for 24 hrs prior to incubation with IL-1 beta for 6 hrs (reference value: 100.0%); format: cell-based; set-up: scale not given: the % may be the effect or the level left
T1 sequence (whole entry): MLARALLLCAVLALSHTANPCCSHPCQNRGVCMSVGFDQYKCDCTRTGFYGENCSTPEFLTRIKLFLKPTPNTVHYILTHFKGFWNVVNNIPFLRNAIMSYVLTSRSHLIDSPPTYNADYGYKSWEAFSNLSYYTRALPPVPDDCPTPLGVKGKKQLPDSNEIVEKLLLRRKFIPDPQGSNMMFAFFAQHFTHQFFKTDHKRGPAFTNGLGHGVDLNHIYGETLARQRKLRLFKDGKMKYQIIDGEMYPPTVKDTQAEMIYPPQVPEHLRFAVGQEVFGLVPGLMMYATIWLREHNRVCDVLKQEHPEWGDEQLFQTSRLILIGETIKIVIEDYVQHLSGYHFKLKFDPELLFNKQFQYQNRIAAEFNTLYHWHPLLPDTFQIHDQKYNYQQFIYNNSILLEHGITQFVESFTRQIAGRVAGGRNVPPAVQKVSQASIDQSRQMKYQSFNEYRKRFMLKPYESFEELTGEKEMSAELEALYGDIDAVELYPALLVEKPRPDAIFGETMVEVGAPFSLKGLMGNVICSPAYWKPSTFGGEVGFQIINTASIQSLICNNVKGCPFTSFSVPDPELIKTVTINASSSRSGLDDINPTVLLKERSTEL

SW982 = assay: Inhibition of IL-1 beta-induced LOX activity in human SW982 cells assessed as enzyme activity at LD50 treated for 24 hrs prior to incubation with IL-1 beta for 6 hrs (reference value: 100.0%); format: cell-based; set-up: scale not given: the % may be the effect or the level left

| Compound | inhibition (Rattus norvegicus [1]) | CC50 at 24 h [2] [µM] | inhibition (Rattus norvegicus [3]) | Activity [4] [%] | Activity (SW982) [%] |
| --- | --- | --- | --- | --- | --- |
| COC(=O)[C@]1(C)[C@@H]2CC[C@]3(C)[C@H](C(=O)C=C4[C@@H]5[C@@H](C)[C@H](C)CC[C@]5(C)CC[C@]43C)[C@@]2(C)CC[C@H]1OC(=O)Cc1c(C)n(C(=O)c2ccc(Cl)cc2)c2ccc(OC)cc12 | Active | – | – | – | – |
| COC(=O)[C@]1(C)[C@@H]2CC[C@]3(C)[C@H](C(=O)C=C4[C@@H]5[C@@H](C)[C@H](C)CC[C@]5(C)CC[C@]43C)[C@@]2(C)CC[C@H]1OC(=O)Cc1ccccc1Nc1c(Cl)cccc1Cl | Active | – | – | – | – |
| COC(=O)[C@]1(C)[C@@H]2CC[C@]3(C)[C@H](CC=C4[C@@H]5[C@@H](C)[C@H](C)CC[C@]5(C)CC[C@]43C)[C@@]2(C)CC[C@H]1OC(=O)Cc1c(C)n(C(=O)c2ccc(Cl)cc2)c2ccc(OC)cc12 | Active | – | – | – | – |
| COC(=O)[C@]1(C)[C@@H]2CC[C@]3(C)[C@H](CC=C4[C@@H]5[C@@H](C)[C@H](C)CC[C@]5(C)CC[C@]43C)[C@@]2(C)CC[C@H]1OC(=O)Cc1ccccc1Nc1c(Cl)cccc1Cl | Active | – | – | – | – |
| COC(=O)[C@]1(C)[C@@H]2CC[C@]3(C)[C@H](CC=C4[C@@H]5[C@@H](C)[C@H](C)CC[C@]5(C)CC[C@]43C)[C@@]2(C)CC[C@H]1OC(=O)C(C)c1ccc(CC(C)C)cc1 (mixture of isomers) | Active | 62.6 | Active | 30.2 | 65.8 |
| COC(=O)[C@]1(C)[C@@H]2CC[C@]3(C)[C@H](C(=O)C=C4[C@@H]5[C@@H](C)[C@H](C)CC[C@]5(C)CC[C@]43C)[C@@]2(C)CC[C@H]1OC(=O)C(C)c1ccc(CC(C)C)cc1 (mixture of isomers) | Active | 40.6 | Active | 27.7 | 60.2 |
| COC(=O)[C@]1(C)[C@@H]2CC[C@]3(C)[C@H](C(=O)C=C4[C@@H]5[C@@H](C)[C@H](C)CC[C@]5(C)CC[C@]43C)[C@@]2(C)CC[C@H]1OC(=O)C(C)c1ccc2cc(OC)ccc2c1 (mixture of isomers) | Active | – | – | – | – |
| COC(=O)[C@]1(C)[C@@H]2CC[C@]3(C)[C@H](CC=C4[C@@H]5[C@@H](C)[C@H](C)CC[C@]5(C)CC[C@]43C)[C@@]2(C)CC[C@H]1OC(=O)C(C)c1ccc2cc(OC)ccc2c1 (mixture of isomers) | Active | – | – | – | – |
| C[C@H]1[C@H](C)CC[C@]2(C)CC[C@]3(C)C(=CC(=O)[C@@H]4[C@@]5(C)CC[C@@H](O)[C@](C)(C(=O)O)[C@@H]5CC[C@]43C)[C@H]12 [11-KETO BOSWELLIC ACID] | Active | 82 | Active | 27.4 | 72.7 |
| C[C@H]1[C@H](C)CC[C@]2(C)CC[C@]3(C)C(=CC[C@@H]4[C@@]5(C)CC[C@@H](O)[C@](C)(C(=O)O)[C@@H]5CC[C@]43C)[C@H]12 [BOSWELLIC ACID] | – | 70.2 | – | 50.8 | 44 |
| CC(C)Cc1ccc(C(C)C(=O)O)cc1 (configuration not stated) [IBUPROFEN] | Active | 93 | Active | – | – |
